Reference: publication PMC5218480 (PLoS ONE, 2017)

System: MV-4-11 cells
Test: Gene expression microarray analysis (Affymetrix PrimeView) and GSEA
Format: cell-based, human
Parameters: RFU PODN (11730768_x_at) / Fold change /veh PODN (11730768_x_at) / RFU LINC00158 (11744669_a_at) / Fold change /veh LINC00158 (11744669_a_at) / RFU DUSP10 (11751237_a_at) / Fold change /veh DUSP10 (11751237_a_at) / RFU ID3 (11757404_x_at) / Fold change /veh ID3 (11757404_x_at) / RFU PLEKHG5 (11737974_s_at) / Fold change /veh PLEKHG5 (11737974_s_at) / RFU LRRC4B (11730491_at) / Fold change /veh LRRC4B (11730491_at) / RFU GIMAP4 (11747438_a_at) / Fold change /veh GIMAP4 (11747438_a_at) / RFU KRT8 (11758183_x_at) / Fold change /veh KRT8 (11758183_x_at) / RFU CNN1 (11734310_a_at) / Fold change /veh CNN1 (11734310_a_at) / RFU VPS37D (11726825_at) / Fold change /veh VPS37D (11726825_at) / RFU C10orf10 (11716522_x_at) / Fold change /veh C10orf10 (11716522_x_at) / RFU KIR2DL2 /// KIR2DL4 /// KIR2DL5A /// KIR2DL5B /// KIR2DS1 /// KIR2DS2 /// KIR2DS3 /// KIR2DS4 /// KIR3DL3 /// KIR3DL3 /// KIR3DS1 (11738374_at) / Fold change /veh KIR2DL2 /// KIR2DL4 /// KIR2DL5A /// KIR2DL5B /// KIR2DS1 /// KIR2DS2 /// KIR2DS3 /// KIR2DS4 /// KIR3DL3 /// KIR3DL3 /// KIR3DS1 (11738374_at) / RFU C1QL1 (11718748_at) / Fold change /veh C1QL1 (11718748_at) / RFU TMPRSS4 (11747572_a_at) / Fold change /veh TMPRSS4 (11747572_a_at) / RFU HAMP (11756126_x_at) / Fold change /veh HAMP (11756126_x_at) / RFU RNFT2 (11725882_a_at) / Fold change /veh RNFT2 (11725882_a_at) / RFU NR4A2 (11747474_a_at) / Fold change /veh NR4A2 (11747474_a_at) / RFU ABCC12 (11746883_a_at) / Fold change /veh ABCC12 (11746883_a_at) / RFU TMEM136 (11760407_x_at) / Fold change /veh TMEM136 (11760407_x_at) / RFU CLDN22 /// WWC2 (11732394_at) / Fold change /veh CLDN22 /// WWC2 (11732394_at) / RFU HLA-DPB1 (11760878_x_at) / Fold change /veh HLA-DPB1 (11760878_x_at) / RFU SPINT1 (11716480_a_at) / Fold change /veh SPINT1 (11716480_a_at) / RFU GAP43 (11754022_s_at) / Fold change /veh GAP43 (11754022_s_at) / RFU A4GNT (11735810_at) / Fold change /veh A4GNT (11735810_at) / RFU PRB3 (11715151_x_at) / Fold change /veh PRB3 (11715151_x_at) / RFU TUBB4B (11761932_at) / Fold change /veh TUBB4B (11761932_at) / RFU CAPN14 (11732068_a_at) / Fold change /veh CAPN14 (11732068_a_at) / RFU TMCC2 (11721928_a_at) / Fold change /veh TMCC2 (11721928_a_at) / RFU IRGQ (11745062_a_at) / Fold change /veh IRGQ (11745062_a_at) / RFU FAM174B (11720279_a_at) / Fold change /veh FAM174B (11720279_a_at) / RFU TMPRSS4 (11748680_a_at) / Fold change /veh TMPRSS4 (11748680_a_at) / RFU FAM212B (11763350_a_at) / Fold change /veh FAM212B (11763350_a_at) / RFU PLEKHG5 (11743358_a_at) / Fold change /veh PLEKHG5 (11743358_a_at) / RFU ZSCAN30 (11745921_a_at) / Fold change /veh ZSCAN30 (11745921_a_at) / RFU CMKLR1 (11741424_a_at) / Fold change /veh CMKLR1 (11741424_a_at) / RFU LOC101060620 /// MAPK8IP1 (11723275_at) / Fold change /veh LOC101060620 /// MAPK8IP1 (11723275_at) / RFU SPTSSB (11747773_x_at) / Fold change /veh SPTSSB (11747773_x_at) / RFU PRSS12 (11739890_at) / Fold change /veh PRSS12 (11739890_at) / RFU BIN1 (11741810_x_at) / Fold change /veh BIN1 (11741810_x_at) / RFU WNT11 (11732464_a_at) / Fold change /veh WNT11 (11732464_a_at) / RFU C10orf10 (11716521_a_at) / Fold change /veh C10orf10 (11716521_a_at) / RFU C5orf56 (11738089_at) / Fold change /veh C5orf56 (11738089_at) / RFU CYB561 (11721691_x_at) / Fold change /veh CYB561 (11721691_x_at) / RFU ANKRD19P (11752326_a_at) / Fold change /veh ANKRD19P (11752326_a_at) / RFU OR2T12 /// OR2T33 /// OR2T8 (11738714_s_at) / Fold change /veh OR2T12 /// OR2T33 /// OR2T8 (11738714_s_at) / RFU VCAN (11748164_a_at) / Fold change /veh VCAN (11748164_a_at) / RFU JSRP1 (11732532_at) / Fold change /veh JSRP1 (11732532_at) / RFU KRTAP10-11 (11738290_x_at) / Fold change /veh KRTAP10-11 (11738290_x_at) / RFU MYO3A (11730013_a_at) / Fold change /veh MYO3A (11730013_a_at) / RFU EBF3 (11725865_a_at) / Fold change /veh EBF3 (11725865_a_at) / RFU CAMK2N1 (11719241_x_at) / Fold change /veh CAMK2N1 (11719241_x_at) / RFU C5orf56 (11738088_a_at) / Fold change /veh C5orf56 (11738088_a_at) / RFU OLFML3 (11715873_a_at) / Fold change /veh OLFML3 (11715873_a_at) / RFU LOC100653217 /// NTM (11731650_a_at) / Fold change /veh LOC100653217 /// NTM (11731650_a_at) / RFU MAPK11 (11762145_a_at) / Fold change /veh MAPK11 (11762145_a_at) / RFU FIZ1 (11724087_x_at) / Fold change /veh FIZ1 (11724087_x_at) / RFU OASL (11726364_x_at) / Fold change /veh OASL (11726364_x_at) / RFU SOX15 (11748057_x_at) / Fold change /veh SOX15 (11748057_x_at) / RFU CD79A (11719716_a_at) / Fold change /veh CD79A (11719716_a_at) / RFU HIST1H1D (11736915_at) / Fold change /veh HIST1H1D (11736915_at) / RFU CASKIN2 (11723855_a_at) / Fold change /veh CASKIN2 (11723855_a_at) / RFU LOC730098 (11760151_x_at) / Fold change /veh LOC730098 (11760151_x_at) / RFU OR4N2 (11742367_at) / Fold change /veh OR4N2 (11742367_at) / RFU PRRT2 (11749266_a_at) / Fold change /veh PRRT2 (11749266_a_at) / RFU SNX32 (11753110_a_at) / Fold change /veh SNX32 (11753110_a_at) / RFU CDHR5 (11726645_a_at) / Fold change /veh CDHR5 (11726645_a_at) / RFU RCAN1 (11760418_a_at) / Fold change /veh RCAN1 (11760418_a_at) / RFU FAM167A (11723789_a_at) / Fold change /veh FAM167A (11723789_a_at) / RFU FAM26E (11764081_at) / Fold change /veh FAM26E (11764081_at) / RFU ISYNA1 (11749810_s_at) / Fold change /veh ISYNA1 (11749810_s_at) / RFU ACY1 (11761880_at) / Fold change /veh ACY1 (11761880_at) / RFU 11764098_at / Fold change /veh 11764098_at / RFU SAMD14 (11745864_x_at) / Fold change /veh SAMD14 (11745864_x_at) / RFU NPB (11741838_a_at) / Fold change /veh NPB (11741838_a_at) / RFU TMPRSS6 (11731388_a_at) / Fold change /veh TMPRSS6 (11731388_a_at) / RFU KRTAP10-2 (11738614_at) / Fold change /veh KRTAP10-2 (11738614_at) / RFU ARHGAP8 /// PRR5-ARHGAP8 (11727945_x_at) / Fold change /veh ARHGAP8 /// PRR5-ARHGAP8 (11727945_x_at) / RFU KRTAP5-7 /// NADSYN1 (11734609_at) / Fold change /veh KRTAP5-7 /// NADSYN1 (11734609_at) / RFU RASL12 (11751679_a_at) / Fold change /veh RASL12 (11751679_a_at) / RFU CDKN2B (11736163_a_at) / Fold change /veh CDKN2B (11736163_a_at) / RFU PRF1 (11729649_at) / Fold change /veh PRF1 (11729649_at) / RFU, ZNF638 /// ZNF638-IT1 / Fold change vs veh, ZNF638 /// ZNF638-IT1 / RFU, PANK3 / Fold change vs veh, PANK3 / RFU, SH3YL1 / Fold change vs veh, SH3YL1 / RFU, ZEB2 / Fold change vs veh, ZEB2 / RFU, NRIP1 / Fold change vs veh, NRIP1 / RFU, PTTG1IP / Fold change vs veh, PTTG1IP / RFU, CAPN2 / Fold change vs veh, CAPN2 / RFU, MED14 / Fold change vs veh, MED14 / RFU, SNORA58 / Fold change vs veh, SNORA58 / RFU, C1orf63 / Fold change vs veh, C1orf63 / RFU, LRRFIP1 / Fold change vs veh, LRRFIP1 / RFU, NDUFAF7 / Fold change vs veh, NDUFAF7 / RFU, SLC12A2 / Fold change vs veh, SLC12A2 / RFU, IBTK / Fold change vs veh, IBTK / RFU, ESF1 / Fold change vs veh, ESF1 / Fold change vs veh, TMEM50B / RFU, TAOK1 / Fold change vs veh, TAOK1 / RFU, ACBD3 / Fold change vs veh, ACBD3 / RFU, TMA16 / Fold change vs veh, TMA16 / RFU, RWDD3 / Fold change vs veh, RWDD3 / RFU, BCAT1 / Fold change vs veh, BCAT1 / RFU, EDEM3 / Fold change vs veh, EDEM3 / RFU, TMEM33 / Fold change vs veh, TMEM33 / RFU, WDR75 / Fold change vs veh, WDR75 / RFU, AHCTF1 / Fold change vs veh, AHCTF1 / RFU, TFRC / Fold change vs veh, TFRC / RFU, ZDHHC17 / Fold change vs veh, ZDHHC17 / RFU, NOM1 / Fold change vs veh, NOM1 / RFU, ARL8B / Fold change vs veh, ARL8B / RFU, ZBTB11 / Fold change vs veh, ZBTB11 / RFU, TAMM41 / Fold change vs veh, TAMM41 / RFU, KIAA1704 /// LOC100996395 / Fold change vs veh, KIAA1704 /// LOC100996395 / RFU, ING1 / Fold change vs veh, ING1 / RFU, TRMT61B / Fold change vs veh, TRMT61B / RFU, FUBP3 / Fold change vs veh, FUBP3 / RFU, TP53 / Fold change vs veh, TP53 / RFU, TNKS2 / Fold change vs veh, TNKS2 / RFU, ZFP14 / Fold change vs veh, ZFP14 / RFU, ACTR2 / Fold change vs veh, ACTR2 / RFU, PPP3R1 / Fold change vs veh, PPP3R1 / RFU, PIK3R1 / Fold change vs veh, PIK3R1 / RFU, HNRNPA1 / Fold change vs veh, HNRNPA1 / RFU, RNF170 / Fold change vs veh, RNF170 / RFU, ZNF28 / Fold change vs veh, ZNF28 / RFU, RNGTT / Fold change vs veh, RNGTT / RFU, OGT / Fold change vs veh, OGT / RFU, BRD1 / Fold change vs veh, BRD1 / RFU, MARS / Fold change vs veh, MARS / RFU, ZNF655 / Fold change vs veh, ZNF655 / RFU, FAHD1 / Fold change vs veh, FAHD1 / RFU, BDP1 / Fold change vs veh, BDP1 / RFU, LRRCC1 / Fold change vs veh, LRRCC1 / RFU, ARID1A / Fold change vs veh, ARID1A / RFU, ZNF146 / Fold change vs veh, ZNF146 / RFU, ZNF330 / Fold change vs veh, ZNF330 / RFU, GPN3 / Fold change vs veh, GPN3 / RFU, C9orf123 / Fold change vs veh, C9orf123 / RFU, N4BP2L2 / Fold change vs veh, N4BP2L2 / RFU, ARFIP1 / Fold change vs veh, ARFIP1 / RFU, FAM179B / Fold change vs veh, FAM179B / RFU, BCL10 / Fold change vs veh, BCL10 / RFU, UHRF1BP1L / Fold change vs veh, UHRF1BP1L / RFU, BET1 / Fold change vs veh, BET1 / RFU, CNOT2 / Fold change vs veh, CNOT2 / RFU, ZNF268 / Fold change vs veh, ZNF268 / Fold change vs veh, ZNF507 / RFU, DGCR2 / Fold change vs veh, DGCR2 / RFU, WDSUB1 / Fold change vs veh, WDSUB1 / Fold change vs veh, HSP90B1 /// MIR3652 / RFU, ADSS / Fold change vs veh, ADSS / RFU, GK / Fold change vs veh, GK / RFU, ZNF148 / Fold change vs veh, ZNF148 / RFU, TAF9 / Fold change vs veh, TAF9 / RFU, SLC1A5 / Fold change vs veh, SLC1A5 / RFU, SLMO2 / Fold change vs veh, SLMO2 / RFU, ABCC4 / Fold change vs veh, ABCC4 / RFU, LOC101060439 /// RAP1B / Fold change vs veh, LOC101060439 /// RAP1B / RFU, RFX7 / Fold change vs veh, RFX7 / RFU, GTPBP10 / Fold change vs veh, GTPBP10 / RFU, CNEP1R1 / Fold change vs veh, CNEP1R1 / RFU, BIVM-ERCC5 /// ERCC5 / Fold change vs veh, BIVM-ERCC5 /// ERCC5 / RFU, ILF3 / Fold change vs veh, ILF3 / RFU 11762660_at / Fold change /veh 11762660_at / RFU VCAN (11757783_s_at) / Fold change /veh VCAN (11757783_s_at) / RFU DDX43 (11728927_at) / Fold change /veh DDX43 (11728927_at) / RFU KRT8 (11758188_x_at) / Fold change /veh KRT8 (11758188_x_at) / RFU NKD1 (11759106_at) / Fold change /veh NKD1 (11759106_at) / RFU SRD5A1 (11742802_a_at) / Fold change /veh SRD5A1 (11742802_a_at) / RFU TPSAB1 /// TPSB2 (11721975_s_at) / Fold change /veh TPSAB1 /// TPSB2 (11721975_s_at) / RFU GSTM3 (11746129_a_at) / Fold change /veh GSTM3 (11746129_a_at) / RFU IL23R (11737362_x_at) / Fold change /veh IL23R (11737362_x_at) / RFU TMEM51 (11727254_a_at) / Fold change /veh TMEM51 (11727254_a_at) / RFU PIWIL2 (11732686_x_at) / Fold change /veh PIWIL2 (11732686_x_at) / RFU ORM1 (11744905_x_at) / Fold change /veh ORM1 (11744905_x_at) / RFU CCDC152 (11743942_at) / Fold change /veh CCDC152 (11743942_at) / RFU ECM1 (11717891_a_at) / Fold change /veh ECM1 (11717891_a_at) / RFU IL23R (11748794_a_at) / Fold change /veh IL23R (11748794_a_at) / RFU TNFAIP8L3 (11732012_x_at) / Fold change /veh TNFAIP8L3 (11732012_x_at) / RFU MBOAT4 (11741988_at) / Fold change /veh MBOAT4 (11741988_at) / RFU 11764193_at / Fold change /veh 11764193_at / RFU TMEM53 (11763286_at) / Fold change /veh TMEM53 (11763286_at) / RFU MAGEB2 (11727129_at) / Fold change /veh MAGEB2 (11727129_at) / RFU TMEM200A (11744735_a_at) / Fold change /veh TMEM200A (11744735_a_at) / RFU CCDC152 (11751479_a_at) / Fold change /veh CCDC152 (11751479_a_at) / RFU FAM211A (11726209_a_at) / Fold change /veh FAM211A (11726209_a_at) / RFU RGS16 (11746705_a_at) / Fold change /veh RGS16 (11746705_a_at) / RFU VCAN (11755009_s_at) / Fold change /veh VCAN (11755009_s_at) / RFU RHOB (11743442_s_at) / Fold change /veh RHOB (11743442_s_at) / RFU RGS16 (11720943_a_at) / Fold change /veh RGS16 (11720943_a_at) / RFU RGS16 (11720944_at) / Fold change /veh RGS16 (11720944_at) / RFU, VPS4B / Fold change vs veh, VPS4B / RFU, CREB1 / Fold change vs veh, CREB1 / RFU, DNAJC13 / Fold change vs veh, DNAJC13 / RFU, GNAQ / Fold change vs veh, GNAQ / RFU, CDK5R1 / Fold change vs veh, CDK5R1 / RFU, ZRANB3 / Fold change vs veh, ZRANB3 / RFU, CUL4A / Fold change vs veh, CUL4A / RFU, CCNY / Fold change vs veh, CCNY / RFU, UFL1 / Fold change vs veh, UFL1 / RFU, COG3 / Fold change vs veh, COG3 / RFU, DIAPH2 / Fold change vs veh, DIAPH2 / RFU, SKA2 / Fold change vs veh, SKA2 / RFU, AFF3 / Fold change vs veh, AFF3 / RFU, LMF1 / Fold change vs veh, LMF1 / RFU, IPO11 / Fold change vs veh, IPO11 / RFU, DFFB / Fold change vs veh, DFFB / RFU, FOXP1 / Fold change vs veh, FOXP1 / RFU, CARD8 / Fold change vs veh, CARD8 / RFU, STRN3 / Fold change vs veh, STRN3 / RFU, ADK / Fold change vs veh, ADK / RFU, RASSF2 / Fold change vs veh, RASSF2 / RFU, WIPF1 / Fold change vs veh, WIPF1 / RFU, LARP1B / Fold change vs veh, LARP1B / RFU, RASA1 / Fold change vs veh, RASA1 / RFU, RB1 / Fold change vs veh, RB1 / RFU, PPFIA1 / Fold change vs veh, PPFIA1 / RFU, MAT2A / Fold change vs veh, MAT2A / RFU, CCT5 / Fold change vs veh, CCT5 / RFU, WDR92 / Fold change vs veh, WDR92 / RFU, CUX1 / Fold change vs veh, CUX1 / RFU, TTC7A / Fold change vs veh, TTC7A / RFU, TMEM135 / Fold change vs veh, TMEM135 / RFU, DEPTOR / Fold change vs veh, DEPTOR / RFU, CPM / Fold change vs veh, CPM / RFU, DNAJB6 / Fold change vs veh, DNAJB6 / RFU, CACNA2D3 / Fold change vs veh, CACNA2D3 / RFU, DTX4 / Fold change vs veh, DTX4 / RFU, TFCP2 / Fold change vs veh, TFCP2 / RFU, GMCL1 /// GMCL1P1 / Fold change vs veh, GMCL1 /// GMCL1P1 / RFU, AEBP2 / Fold change vs veh, AEBP2 / RFU, SNHG1 /// SNORD22 /// SNORD25 /// SNORD26 /// SNORD27 /// SNORD28 /// SNORD29 /// SNORD31 / Fold change vs veh, SNHG1 /// SNORD22 /// SNORD25 /// SNORD26 /// SNORD27 /// SNORD28 /// SNORD29 /// SNORD31 / Fold change (Aza/veh), C12orf56 (ProbeSet 11735607_a_at) / Fold change (ACY-1035/veh), C12orf56 (ProbeSet 11735607_a_at) / Fold change (Aza/veh), FGFR1OP (ProbeSet 11751329_s_at) / Fold change (ACY-1035/veh), FGFR1OP (ProbeSet 11751329_s_at) / Fold change (Aza/veh), VPS36 (ProbeSet 11739960_a_at) / Fold change (ACY-1035/veh), VPS36 (ProbeSet 11739960_a_at) / RFU SYPL1 (11715823_x_at) / Fold change /veh SYPL1 (11715823_x_at) / RFU IGFBP7 (11715501_s_at) / Fold change /veh IGFBP7 (11715501_s_at) / RFU REEP3 (11722064_at) / Fold change /veh REEP3 (11722064_at) / RFU IGLL1 (11728026_x_at) / Fold change /veh IGLL1 (11728026_x_at): dose or concentration left out as unconfirmed
Details: MV-4-11 cells, 48 hours

Q: How did the “Fold change /veh IGFBP7 (11715501_s_at)” value turn out when `Nc1ccc(-c2cccs2)cc1NC(=O)c1ccc2c(c1)cc(C1CC1)n2CCN1CCOCC1` [ACY-1035] was run?
A: The value was 0.33.
